Test results as given in US11058690B2, “Use of cytochrome bc1 complex inhibitor in preparing pharmaceutical composition” (BEIJING WEILANZHIYUAN MEDICAL TECHNOLOGY CO., LTD., priority 2017, dated 2021).

Columns and labels:
[1] = system: mice; test: xylene-induced mouse ear swelling test; type: in vivo
Experimental: Fifty healthy adult male mice were randomly divided into 5 groups. […] […] One hour after administration, 20 μL of xylene was evenly applied to both sides of the right ear of mouse, and xylene was not applied to the left ear as self control. One hour later, the two ears were cut off, and two ear pieces were removed from the same parts of the two ears with a 6 mm hole punch. The two ear pieces were weighed on a precision balance, and the swelling degree (right ear piece weight-left ear piece weight) and swelling inhibition rate (right ear piece weight-left ear piece weight)/left ear piece weight×100%) were calculated.

[2] = system: rat uterine smooth muscle; test: contraction of rat uterine smooth muscle induced by potassium chloride; type: cell-based; settings: potassium chloride (16 mM)
Experimental: Female healthy Wistar rats weighing 230-270 g were used in the experiment. At 2 days before the experiment, Diethylstilbestrol suspension was injected intraperitoneally once at 0.1 mg/kg, resulting in artificial estrus. The rats were sacrificed by cervical dislocation, and the uterus was removed by laparotomy and immediately placed in a glass plate containing Tyrode's solution. […] The materials stood for 20-30 minutes, liquid was changed 2-3 times, then the uterus was given a load of 1 g and kept for 30-60 minutes until the uterus had regular contraction waves, 40 mM KCL solution was provided for 10 minutes, and the function of the uterine muscle strips was evaluated. Then the muscle strips were relaxed and washed 2-3 times with Tyrode's solution, then let stand for 30 minutes; after standing, the uterine muscle strips were given a load of 1 g and kept for 30-60 minutes, and the administration and the observation were carried out after the uterine muscle strips contracted stably (i.e. regular contraction waveforms appear in a microcomputer display screen), the changes of relevant data such as contraction tension, amplitude and area under the contraction curve of the uterine smooth muscle strips were recorded, and the drug given was evaluated. […]

[3] = system: Kunming female mice; test: PGF2α-induced dysmenorrhea model in mice (diethylstilbestrol sensitization); type: in vivo, mouse; settings: for Number of writhing times: within 30 min
Experimental: A mouse dysmenorrhea model was established with reference to Yang L., Cao Z., Yu B. & Chai C. An in vivo mouse model of primary dysmenorrhea. Exp Anim. 2015, August 64, 295-303. Adult healthy Kunming female mice were randomly grouped, 10 mice in each group. Experimental mice were intragastrically given diethylstilbestrol 0.2 mg daily for 12 days. Different kinds and dosages of the inhibitors of the cytochrome bc1 complex were given intraperitoneally or intragastrically 30 min after the last administration. Indometacin (50 mg/kg) was injected intraperitoneally as positive control, PGF2α (1.3 mg/kg) or oxytocin (20 U/kg) was injected intraperitoneally 1 h later, and the writhe starting time (reaction latency) and the number of writhing times within 30 min were observed and recorded.

[4] = system: Kunming male mice; test: acetic acid writhing test on mice; type: in vivo, mouse; settings: for Writhe starting time / Number of writhing times: Table 3; for Number of writhing times: within 30 min
[5] = Table 7, 100 mg/Kg intraperitoneal
[6] = Table 7, 200 mg/Kg intraperitoneal

Compound: CO/C=C(/C(=O)OC)c1ccccc1COc1cc(C(F)(F)F)nc(OC(C)C)n1 [FAPM, fluacrypyrim]
- Ear swelling ([1]; 100 mg/Kg intraperitoneal, 1 hour after xylene): 7.83 ± 3.85 mg
- xylene-induced mouse ear swelling ([1]; 100 mg/kg intraperitoneal): significantly inhibited
- IC50 [2]: 1210 ± 70 nM
- curative effect compared with indomethacin ([3]; 50 mg/Kg versus indomethacin 50 mg/Kg): equivalent to indomethacin at 50 mg/Kg
- Writhe starting time ([3]; 200 mg/Kg intraperitoneal): significantly prolonged
- effect on number of writhing times ([3]; FAPM intraperitoneal, azoxystrobin intragastric, 50, 100 and 200 mg/Kg one hour before): in a dose-dependent manner
- Writhe starting time ([3]; Table 7, 50 mg/Kg intraperitoneal): 1.24 ± 0.66 min
- Number of writhing times ([3]; Table 7, 50 mg/Kg intraperitoneal, 1 h before PGF2α (1.3 mg/kg)): 18.3 ± 3.3
- Writhe starting time [3, 5]: 1.43 ± 0.73 min
- Number of writhing times [3, 5]: 12.5 ± 1.7
- Writhe starting time [3, 6]: 2.15 ± 0.34 min
- Number of writhing times [3, 6]: 5.8 ± 1.2
- curative effect compared with indomethacin ([4]; 100 mg/Kg versus indomethacin 50 mg/Kg): equivalent to indomethacin at 50 mg/Kg
- writhe starting time (reaction latency) compared with control group ([4]; FAPM and trifloxystrobin intraperitoneal, azoxystrobin intragastric): significantly prolonged
- Writhe starting time ([4]; 50 mg/Kg intraperitoneal): 3.4 ± 1.1 min
- Number of writhing times ([4]; 50 mg/Kg intraperitoneal, 1 hour before acetic acid): 25.3 ± 4.7
- Writhe starting time ([4]; 100 mg/Kg intraperitoneal): 4.6 ± 1.5 min
- Number of writhing times ([4]; 100 mg/Kg intraperitoneal): 17.6 ± 3.5
- Writhe starting time ([4]; 200 mg/Kg intraperitoneal): 11.9 ± 2.6 min
- Number of writhing times ([4]; 200 mg/Kg intraperitoneal): 2.4 ± 2.2
